T/C data for 20 molecules are collected here from PubChem BioAssay AID256 (DTP/NCI, 2004).

This experiment deals with CD2F1 mice, L1210 leukemia ip, survival T/C. The experiment is described as follows: NCI In Vivo Anticancer Drug Screen. Data for tumor model L1210 Leukemia (intraperitoneal) in CD2F1 (CDF1) mice. The following applies: higher = longer survival. Summed up: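 Tumor-bearing mice (transplanted tumor) were split into treated and vehicle control groups, and the measured endpoint of each treated group was divided by that of its vehicle controls.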

The mark [1] stands for this setting: endpoint: mean survival time, dose: 100.0 mg/kg/injection, schedule: Q01DX009 (ip), vehicle: saline with Tween-80.
[2] abbreviates: endpoint: mean survival time, dose: 200.0 mg/kg/injection, schedule: Q01DX009 (ip), vehicle: saline with Tween-80.
[3] abbreviates: endpoint: mean survival time, dose: 400.0 mg/kg/injection, schedule: Q01DX009 (ip), vehicle: saline with Tween-80.
[4] abbreviates: endpoint: mean survival time, dose: 100.0 mg/kg/injection, schedule: Q01DX001 (ip), vehicle: saline with Tween-80.
Setting [5] is: endpoint: mean survival time, dose: 100.0 mg/kg/injection, schedule: Q04DX003 (ip), vehicle: saline.
[6] abbreviates: endpoint: mean survival time, dose: 200.0 mg/kg/injection, schedule: Q01DX001 (ip), vehicle: saline with Tween-80.
The mark [7] stands for this setting: endpoint: mean survival time, dose: 200.0 mg/kg/injection, schedule: Q04DX003 (ip), vehicle: saline.
Where [8] appears, read: endpoint: mean survival time, dose: 400.0 mg/kg/injection, schedule: Q01DX001 (ip), vehicle: saline with Tween-80.
Setting [9] is: endpoint: mean survival time, dose: 400.0 mg/kg/injection, schedule: Q04DX003 (ip), vehicle: saline.
[10] abbreviates: endpoint: mean survival time, dose: 100.0 mg/kg/injection, schedule: Q01DX009 (ip), vehicle: saline.
The mark [11] stands for this setting: endpoint: mean survival time, dose: 200.0 mg/kg/injection, schedule: Q01DX009 (ip), vehicle: saline.
[12] abbreviates: endpoint: mean survival time, dose: 400.0 mg/kg/injection, schedule: Q01DX009 (ip), vehicle: saline.
Setting [13] is: endpoint: mean survival time, dose: 25.0 mg/kg/injection, schedule: Q01DX009 (ip), vehicle: saline with Tween-80.
The mark [14] stands for this setting: endpoint: mean survival time, dose: 50.0 mg/kg/injection, schedule: Q01DX009 (ip), vehicle: saline with Tween-80.
[15] abbreviates: endpoint: mean survival time, dose: 100.0 mg/kg/injection, schedule: Q01DX001 (ip), vehicle: saline.
The mark [16] stands for this setting: endpoint: mean survival time, dose: 200.0 mg/kg/injection, schedule: Q01DX001 (ip), vehicle: saline.
Where [17] appears, read: endpoint: mean survival time, dose: 400.0 mg/kg/injection, schedule: Q01DX001 (ip), vehicle: saline.
Setting [18] is: endpoint: mean survival time, dose: 12.5 mg/kg/injection, schedule: Q01DX009 (ip), vehicle: saline with Tween-80.
Setting [19] is: endpoint: mean survival time, dose: 6.25 mg/kg/injection, schedule: Q01DX009 (ip), vehicle: saline with Tween-80.
[20] abbreviates: endpoint: mean survival time, dose: 25.0 mg/kg/injection, schedule: Q04DX003 (ip), vehicle: saline with Tween-80.

Structures are written as SMILES. Where “and” joins values, the source holds several entries; their conditions need not be identical. Equal entries are not always repeated. Inconclusive results and toxic doses are left out.

For the molecule `CCCC(=O)OCC1OC(n2ccc(O)cc2=O)C(O)C1O` (stereo not given), the T/C by setting is: (endpoint: median survival time, dose: 44.0 mg/kg/injection, schedule: Q01DX009 (ip), vehicle: saline + Tween-80 + alcohol) 171 % of control; (endpoint: median survival time, dose: 67.0 mg/kg/injection, schedule: Q01DX009 (ip), vehicle: saline + Tween-80 + alcohol) 174 % of control; (endpoint: median survival time, dose: 100.0 mg/kg/injection, schedule: Q01DX009 (ip), vehicle: saline + Tween-80 + alcohol) 168 % of control; (endpoint: median survival time, dose: 150.0 mg/kg/injection, schedule: Q01DX009 (ip), vehicle: saline + Tween-80 + alcohol) 162 % of control.

On to `CCCOC(=O)COc1ccc(F)cc1`, for which the T/C was 97 % of control (endpoint: mean survival time, dose: 100.0 mg/kg/injection, schedule: Q04DX002 (ip), vehicle: saline with Tween-80); 101 % of control (endpoint: mean survival time, dose: 200.0 mg/kg/injection, schedule: Q04DX002 (ip), vehicle: saline with Tween-80); 97 % of control (endpoint: mean survival time, dose: 400.0 mg/kg/injection, schedule: Q04DX002 (ip), vehicle: saline with Tween-80).

Take `CCCCCCCCC[n+]1ccc(C#N)cc1`: the T/C reads like this: (endpoint: mean survival time, dose: 9.38 mg/kg/injection, schedule: Q01DX001 (ip), vehicle: other) 103 % of control; (endpoint: mean survival time, dose: 18.75 mg/kg/injection, schedule: Q01DX001 (ip), vehicle: other) 101 % of control; (endpoint: mean survival time, dose: 37.5 mg/kg/injection, schedule: Q01DX001 (ip), vehicle: other) 103 % of control.

For `COc1ccc(-c2cc3ccccc3c(=O)o2)cc1`, the T/C is 98 % of control under setting [1], 98 % of control under setting [2] and 91 % of control under setting [3].

Consider `COc1ccc(OC)c(C2C(C#N)C(C=O)NC(C=O)C2C#N)c1` (stereo not given), for which the T/C (endpoint: mean survival time, dose: 100.0 mg/kg/injection, schedule: Q01DX009 (ip), vehicle: other) was 100 % of control; the T/C (endpoint: mean survival time, dose: 200.0 mg/kg/injection, schedule: Q01DX009 (ip), vehicle: other) is 104 % of control; the T/C (endpoint: mean survival time, dose: 400.0 mg/kg/injection, schedule: Q01DX009 (ip), vehicle: other) is 100 % of control.

On to `CCCCC(N)C(=O)O` (stereo not given), for which the T/C is 104 % of control under setting [4]; 105 % of control under setting [5]; 104 % of control under setting [6]; 103 % of control under setting [7]; 102 % of control under setting [8]; 95 % of control under setting [9].

For the molecule `NC(CO)(CO)CO`, the T/C was 98 % of control under setting [10], 93 % of control under setting [11] and 100 % of control under setting [12].

In the case of `Nc1ccc2c(c1)C(=O)c1ccccc1C2=O`, the T/C runs as follows: under setting [13], 98 % of control; under setting [14], 98 % of control; under setting [1], 101 % of control and 102 % of control; under setting [2], 102 % of control; under setting [3], 96 % of control.

Turning to `COC(=O)c1cc(Cl)ccc1OCC(=O)Nc1ccccc1`, the T/C under setting [4] is 90 % of control, the T/C under setting [6] was 94 % of control and the T/C under setting [8] was 94 % of control.

Turning to `NC(CC(=O)c1ccccc1)C(=O)O` (stereo not given), the T/C was 98 % of control under setting [15], 93 % of control under setting [16] and 90 % of control under setting [17].

As for `O=c1c2ccsc2ncn1C1OC(CO)C(O)C1O` (stereo not given), the T/C is 111 % of control under setting [18], 111 % of control under setting [13] and 91 % of control under setting [14].

As to `CC1=C(N2CC2)C(=O)c2c(COC(N)=O)c3n(c2C1=O)CCC3OC(N)=O` (stereo not given), the T/C is 108 % of control (endpoint: mean survival time, dose: 1.5 mg/kg/injection, schedule: Q01DX001 (ip), vehicle: distilled water + Tween-80); 109 % of control and 112 % of control (endpoint: mean survival time, dose: 3.0 mg/kg/injection, schedule: Q01DX001 (ip), vehicle: distilled water + Tween-80); 114 % of control and 121 % of control (endpoint: mean survival time, dose: 6.0 mg/kg/injection, schedule: Q01DX001 (ip), vehicle: distilled water + Tween-80); 120 % of control (endpoint: mean survival time, dose: 12.0 mg/kg/injection, schedule: Q01DX001 (ip), vehicle: distilled water + Tween-80); 120 % of control (endpoint: mean survival time, dose: 48.0 mg/kg/injection, schedule: Q01DX001 (ip), vehicle: distilled water + Tween-80).

As for `CCOC(=O)CSCc1ccc(C(C)(C)C)cc1`, the T/C was 96 % of control under setting [15], 98 % of control under setting [16] and 93 % of control under setting [17].

`CCN(CC)CCCC(C)Nc1ncnc2oc(C)c(C)c12` (stereo not given): the T/C under setting [19] was 93 % of control; the T/C (endpoint: mean survival time, dose: 6.25 mg/kg/injection, schedule: Q04DX003 (ip), vehicle: saline with Tween-80) is 103 % of control; the T/C under setting [18] is 95 % of control; the T/C (endpoint: mean survival time, dose: 12.5 mg/kg/injection, schedule: Q04DX003 (ip), vehicle: saline with Tween-80) is 105 % of control; the T/C under setting [13] was 95 % of control; the T/C under setting [20] was 102 % of control.

On to `Cc1cc(Cl)ccc1[NH-].Cc1cc(Cl)ccc1[NH-].[Cl][Pt+2][Cl]`, for which the T/C reads like this: under setting [20], 100 % of control; (endpoint: mean survival time, dose: 50.0 mg/kg/injection, schedule: Q04DX003 (ip), vehicle: saline with Tween-80) 94 % of control; (endpoint: mean survival time, dose: 100.0 mg/kg/injection, schedule: Q04DX003 (ip), vehicle: saline with Tween-80) 94 % of control; (endpoint: mean survival time, dose: 200.0 mg/kg/injection, schedule: Q04DX003 (ip), vehicle: saline with Tween-80) 94 % of control; (endpoint: mean survival time, dose: 400.0 mg/kg/injection, schedule: Q04DX003 (ip), vehicle: saline with Tween-80) 97 % of control.

Turning to `CC1(C)C(C(=O)/C=C/c2ccccc2)C1[N+](=O)[O-]` (stereo not given), the T/C is 97 % of control (endpoint: mean survival time, dose: 100.0 mg/kg/injection, schedule: Q04DX002 (ip), vehicle: other); 97 % of control (endpoint: mean survival time, dose: 200.0 mg/kg/injection, schedule: Q04DX002 (ip), vehicle: other); 97 % of control (endpoint: mean survival time, dose: 400.0 mg/kg/injection, schedule: Q04DX002 (ip), vehicle: other).

In the case of `CCCCP(=O)(O)O`, the T/C was 92 % of control under setting [4] and 100 % of control under setting [6].

Consider `Nc1ncnc2c1ncn2C1OC(COCc2ccccc2)C(OCc2ccccc2)C1OCc1ccccc1` (stereo not given), for which the T/C runs as follows: (endpoint: mean survival time, dose: 20.0 mg/kg/injection, schedule: Q01DX Z (ip), vehicle: saline) 90 % of control; (endpoint: mean survival time, dose: 40.0 mg/kg/injection, schedule: Q01DX Z (ip), vehicle: saline) 90 % of control; (endpoint: mean survival time, dose: 80.0 mg/kg/injection, schedule: Q01DX Z (ip), vehicle: saline) 90 % of control and 93 % of control; (endpoint: mean survival time, dose: 160.0 mg/kg/injection, schedule: Q01DX Z (ip), vehicle: saline) 91 % of control and 96 % of control.

Take `COc1cc(OC)c(/C=C/c2cc3ccccc3c[n+]2C)c(OC)c1`: the T/C was 117 % of control (endpoint: mean survival time, dose: 3.13 mg/kg/injection, schedule: Q01DX009 (ip), vehicle: saline with Tween-80) and 117 % of control under setting [19].

Consider `O=C1CCC(=O)N1CO`, for which the T/C under setting [10] was 102 % of control; the T/C under setting [5] was 106 % of control; the T/C under setting [11] is 109 % of control; the T/C under setting [7] is 101 % of control; the T/C under setting [12] was 111 % of control; the T/C under setting [9] was 116 % of control.
